Results from patent US6881577B2, “Method for improving transfection efficiency” (Max-Delbrück-Centrum für Molekulare Medizin, priority 2000, dated 2005).

Columns and labels:
[1] = Dynamic light scattering of peptide/DNA complexes (apparent size, light scattering intensity); format: physicochemical; conditions: for relative size of the complexes on dilution: peptide/DNA complexes diluted up to 1:16, FIGS. 13 and 14
Description: In order to exclude the possibility that the observed enhancement of the transfection efficiency was mainly related to a more favorable complex formation process when using the K16-VprN peptide, size measurements (FIG. 11) and the determination of the relative particle number (FIG. 12) using dynamic light scattering were performed. […] Indeed, at a peptide to DNA charge ratio of 3 the K16-VprN peptide generates a three-fold increase of the light scattering intensity and an increase of the reporter gene expression of at least 100-times, as compared to K16-mVprN. At a peptide to DNA charge ratio of 9 the light scattering intensity increases twice as compared to charge ratio 3. However, in these conditions the reporter gene expression only increases 10 fold.
The complexes were subsequently diluted up to 1:16 and subjected to dynamic light scattering measurements.

[2] = system: human colon carcinoma cells (HCT 116); assay: Transfection of HCT 116 cells with plasmid DNA/peptide complexes (with or without LIPOFECTIN), luciferase reporter gene expression; format: cell-based
Excerpt: Complexes consisting in plasmid DNA, peptide and lipid were formed and used in transfection experiments of human colon carcinoma cells (HCT 116) in vitro. The luciferase reporter gene was used in order to measure the transfection efficiency.
In addition to the construction of the mentioned K16 peptides the invention consists in the construction of DNA-peptide-lipid-complexes. A critical issue is thereby the composition of the complexes through the selection of an appropriate peptide to DNA charge ratio as well as an appropriate amount of the lipid. The procedure of complex formation (involving concentrations, volume, buffer type, incubation time and the order by which the elements are sequentially added to the mixture, see FIGS. 1-3 and 4-6) is also a critical factor determining the transfection efficiency of the system.
Based on the above described procedure for the optimization of DNA-peptide-lipid-complexes different complexes containing plasmid DNA, the K16-CYC peptide and cationic liposome (LIPOFECTIN®) were formed and subsequently used in transfection experiments of HCT 116 cells.
Complexes were formed containing plasmid DNA, the K16-VprN peptide and cationic liposome (LIPOFECTIN®) and subsequently used in transfection experiments of HCT 116 cells.
In both applications, the K16-mVprN peptide was used as a control peptide instead of the K16-VprN peptide.

[3] = peptide/DNA complex without lipid, FIG. 10

Substance | relative size of the complexes on dilution ([1]; dynamic light scattering) | increase of the reporter gene expression compared to K16-mVprN ([2]; peptide to DNA charge ratio of 3, without lipid, FIG. 10) | increase of the reporter gene expression ([2]; peptide to DNA charge ratio of 9, without lipid, FIG. 10) [fold] | amount of peptide giving the highest gene expression, less than for K16-mVprN [2, 3] [times] | increase of the maximum reporter gene expression level compared to K16-mVprN [2, 3] [fold] | reporter gene expression compared to the control peptide K16-mVprN ([2]; with and without LIPOFECTIN, FIGS. 9 and 10) | particle size of DNA complexes compared to K16-mVprN ([1]; dynamic light scattering, FIG. 11) | increase of the light scattering intensity compared to K16-mVprN ([1]; peptide to DNA charge ratio of 3, FIG. 12) | increase of light scattering intensity compared to charge ratio 3 ([1]; peptide to DNA charge ratio of 9, FIG. 12) | reporter gene expression following transfection, compared to the K16-NLS peptide ([2]; complexes of plasmid DNA, peptide and LIPOFECTIN (0.5 or 1 μl), FIGS. 7 and 8)
KKKKKKKKKKKKKKKKGGGNEATLELLPELKNPAVRHF (Synthetic peptide sequence, K16-mVprN, that carries 16 lysine residues for the binding of the peptide to the plasmid DNA.) | remains nearly constant |  |  |  |  |  |  |  |  | 
KKKKKKKKKKKKKKKKGGGCNEWTLELLEELKNEAVRHF [K16-VprN] | remains nearly constant | at least 100 times | 10 | 12 | 10 | significant increase | no significant difference | three-fold | twice | 
-VKLKVYPLKKKRKP- [K16-CYC] |  |  |  |  |  |  |  |  |  | dramatic increase
